The values below come from patent US20060110787A1, “Use of fluorine-18-labeled fluoroquinolone antibiotics for diagnosing and monitoring bacterial infection” (The Board Trustees of the University of Arkansas, priority 2004, published 2006).

The assay has as its system bacterial infections (bone, wound, respiratory and other). Put plainly: PET scan imaging of human subjects after intravenous injection of the 18F-labeled fluoroquinolone. The following applies: 700 to 1400 MBq i.v.; PET scan 30 to 60 minutes after injection; patients with various bacterial infections vs healthy subjects. The format is in vivo. How it is done: [^18F]ciprofloxacin administration to human subjects suspected of having bacterial infection and PET monitoring of the localization of [^18F] in the subjects. Healthy subjects are injected intravenously with 700 to 1400 MBq of [^18F]ciprofloxacin. In order to correct for the attenuation of photons by tissue, a transmission scan with two 400-MBq pin sources or from CT data (if the scan is acquired on a PET/CT scanner) is recorded after obtaining the emission scan. Thirty to sixty minutes after injection of [^18F]ciprofloxacin, data are obtained by PET scan of the regions of concern (such as the whole body or a specific area such as the hip or chest, depending on the clinical need) . Each subject is positioned supine on the imaging bed. The data on healthy subjects establish the appearance of the distribution of [^18F]ciprofloxacin in uninfected patients.
The same protocol is used on patients diagnosed by other criteria with bacterial bone infections, bacterial wound infections, bacterial respiratory infections, and other bacterial infections.
Healthy subjects and subjects confirmed by conventional diagnostic methods to have bacterial infections of various types are injected intravenously with 700 to 1400 MBq of [^18F]fleroxacin. After 30 to 60 minutes, the subjects are subjected to PET scan imaging as described in Example 1.

On to `O=C(O)c1cn(C2CC2)c2cc(N3CCNCC3)c(F)cc2c1=O` [[^18F]ciprofloxacin], for which the “PET scan results of patients with bacterial infections versus healthy volunteers” value is reported as “distinguishable from the PET scan results of healthy volunteers”.
In the case of [^18F]fleroxacin, the “PET scan results of patients with bacterial infections versus healthy volunteers” value is on record as “distinguishable from the PET scan results of healthy volunteers”.
